Test results: patent US9695155B2, “Herbicidal substituted pyrimidinyloxy benzene compounds” (E. I. DU PONT DE NEMOURS AND COMPANY, priority 2013, dated 2017)

Columns and labels:
wheat [1] = experiment: Test A postemergence; type: in vivo, Triticum aestivum
How it was run: (§1)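 Pre- and postemergence greenhouse screen. Soil: loam + sand. Spray carrier: solvent mixture, non-phytotoxic, with surfactant. Post timing at 1–2 leaves, height 2–10 cm. Readout: visual injury on a 0–100 scale roughly 10 days after application, untreated plants as reference.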

oilseed rape = experiment: Test C postemergence; type: in vivo, Brassica napus
How it was run: (§2)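 Visual ratings on a 0–100 scale (100 = complete control) were made versus untreated controls after 13–15 greenhouse days. Chemicals in a surfactant-containing non-phytotoxic solvent were applied either preemergence to seeds in loam–sand soil or postemergence to 1- to 4-leaf plants 2–18 cm tall.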

kochia = experiment: Test C postemergence; type: in vivo, Kochia scoparia; conditions: for Kochia plant response rating / Plant response rating, Kochia: scale 0 to 100 (0 no effect, 100 complete control)
How it was run: as §2

velvetleaf [2] = experiment: Test A postemergence; type: in vivo, Abutilon theophrasti
How it was run: as §1

rice = experiment: Test B flooded paddy test; type: in vivo, Oryza sativa; conditions: Flood, 250 g ai/ha; 0 to 100 scale where 0 is no effect and 100 is complete control
How it was run: (§3)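 Compound added straight to paddy water, with pots kept flooded 3 cm above soil, on plants grown to the 2-leaf stage. Visual scoring 0-100 (100 = complete control) against untreated controls after 13 to 15 greenhouse days.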

wheat [3] = experiment: Test A preemergence; type: in vivo, Triticum aestivum; conditions: for Plant response rating, Wheat: 0 to 100 scale where 0 is no effect and 100 is complete control
How it was run: as §1

pigweed = experiment: Test C postemergence; type: in vivo, Amaranthus retroflexus
How it was run: as §2

velvetleaf [4] = experiment: Test C postemergence; type: in vivo, Abutilon theophrasti
How it was run: as §2

Heteranthera limosa = experiment: Test B flooded paddy test; type: in vivo; conditions: Flood, 250 g ai/ha; 0 to 100 scale where 0 is no effect and 100 is complete control
How it was run: as §3

morningglory = experiment: Test C postemergence; type: in vivo, Ipomoea coccinea
How it was run: as §2

large (Lg) crabgrass [5] = experiment: Test A postemergence; type: in vivo, Digitaria sanguinalis
How it was run: as §1

velvetleaf [6] = experiment: Test A preemergence; type: in vivo, Abutilon theophrasti; conditions: for Velvetleaf plant response rating: 500 g ai/ha
How it was run: as §1

soybean = experiment: Test C postemergence; type: in vivo, Glycine max
How it was run: as §2

large (Lg) crabgrass [7] = experiment: Test A preemergence; type: in vivo, Digitaria sanguinalis; conditions: for Crabgrass, Large plant response rating: 500 g ai/ha
How it was run: as §1

giant foxtail = experiment: Test A postemergence; type: in vivo, Setaria faberii
How it was run: as §1

lambsquarters = experiment: Test C postemergence; type: in vivo, Chenopodium album
How it was run: as §2

[8] = 125 g ai/ha, 0 to 100 scale where 0 is no effect and 100 is complete control
[9] = 500 g ai/ha, 0 to 100 scale where 0 is no effect and 100 is complete control
[10] = Postemergence, 31 g ai/ha, scale 0 to 100 (0 no effect, 100 complete control), 13 to 15 days
[11] = Postemergence, 62 g ai/ha, scale 0 to 100 (0 no effect, 100 complete control)
[12] = Postemergence, 31 g ai/ha, 13 to 15 days
[13] = 0 to 100 scale, 0 no effect, 100 complete control, approx. 10 days
[14] = 16 g ai/ha, postemergence, 0 is no effect, 100 is complete control
[15] = 31 g ai/ha, postemergence, visual rating, scale 0 to 100 (0 no effect, 100 complete control), 13 to 15 days
[16] = 125 g ai/ha, postemergence, visual rating, scale 0 to 100 (0 no effect, 100 complete control)
[17] = Postemergence, 62 g ai/ha, scale 0 to 100 (0 no effect, 100 complete control), 13 to 15 days
[18] = 0 to 100 scale where 0 is no effect and 100 is complete control
[19] = 500 g ai/ha, 0 to 100 scale, 0 no effect, 100 complete control

N#Cc1cccc(Oc2ncc(Cl)cn2)c1-n1cc(OC(F)F)cn1 [Compound 97]
Plant response rating, Wheat (wheat [1]; [8]): 50 | Plant response rating, Wheat (wheat [1]; [9]): 70 | Plant response rating (0 to 100), Oilseed Rape (oilseed rape; 125 g ai/ha, postemergence): 80 | Plant response rating, Oilseed Rape (oilseed rape; [10]): 60 | Plant response rating, Oilseed Rape (oilseed rape; [11]): 80 | Kochia plant response rating (kochia; 16 g ai/ha, postemergence, visual rating, 13 to 15 days): 80 | Plant response rating (0 to 100), Kochia (kochia; 125 g ai/ha, postemergence): 100 | Plant response rating, Kochia (kochia; [12]): 90 | Plant response rating, Kochia (kochia; Postemergence, 62 g ai/ha): 95 | Plant response rating, Velvetleaf (velvetleaf [2]; [8]): 100 | Plant response rating, Velvetleaf (velvetleaf [2]; [9]): 100 | Plant response rating, Rice (rice): 0 | Plant response rating, Wheat (wheat [3]; 125 g ai/ha): 0 | Plant response rating (0 to 100), Pigweed (pigweed; 125 g ai/ha, postemergence): 95 | Plant response rating, Pigweed (pigweed; [10]): 85 | Plant response rating, Pigweed (pigweed; [11]): 85 | Plant response rating (0 to 100), Velvetleaf (velvetleaf [4]; 125 g ai/ha, postemergence): 70 | Plant response rating, Velvetleaf (velvetleaf [4]; [10]): 40 | Plant response rating, Velvetleaf (velvetleaf [4]; [11]): 75 | Plant response rating, Ducksalad (Heteranthera limosa): 95 | Plant response rating (0 to 100), Morningglory (morningglory; 125 g ai/ha, postemergence): 95 | Plant response rating, Morningglory (morningglory; [10]): 85 | Plant response rating, Morningglory (morningglory; [11]): 85 | Plant response rating, Crabgrass, Large (large (Lg) crabgrass [5]; [8]): 90 | Plant response rating, Crabgrass, Large (large (Lg) crabgrass [5]; [9]): 100 | Plant response rating, Velvetleaf (velvetleaf [6]; [8]): 100 | Plant response rating (0 to 100), Soybean (soybean; 125 g ai/ha, postemergence): 95 | Plant response rating, Soybean (soybean; [10]): 60 | Plant response rating, Soybean (soybean; [11]): 90 | Plant response rating, Crabgrass, Large (large (Lg) crabgrass [7]; [8]): 100 | Crabgrass, Large plant response rating (large (Lg) crabgrass [7]; [13]): 100 | Plant response rating, Foxtail, Giant (giant foxtail; [8]): 90 | Plant response rating, Foxtail, Giant (giant foxtail; [9]): 90 | Plant response rating (0 to 100), Lambsquarters (lambsquarters; 125 g ai/ha, postemergence): 98 | Plant response rating, Lambsquarters (lambsquarters; [10]): 75 | Plant response rating, Lambsquarters (lambsquarters; [11]): 80

FC(F)c1cnn(-c2c(Cl)cccc2Oc2ncc(Cl)cn2)c1 [Compound 192]
Wheat plant response rating (wheat [1]; [8]): 0 | Plant response rating, Wheat (wheat [1]; [9]): 50 | Plant response rating (0 to 100), Oilseed Rape (oilseed rape; [14]): 10 | Oilseed Rape plant response rating (oilseed rape; [15]): 5 | Plant response rating, Oilseed Rape (oilseed rape; [16]): 60 | Plant response rating, Oilseed Rape (oilseed rape; [17]): 60 | Plant response rating (0 to 100), Kochia (kochia; [14]): 30 | Kochia plant response rating (kochia; 31 g ai/ha, postemergence, visual rating, 13 to 15 days): 45 | Plant response rating, Kochia (kochia; 125 g ai/ha, postemergence, visual rating): 90 | Plant response rating, Kochia (kochia; Postemergence, 62 g ai/ha, 13 to 15 days): 85 | Velvetleaf plant response rating (velvetleaf [2]; [8]): 90 | Plant response rating, Velvetleaf (velvetleaf [2]; [9]): 100 | Plant response rating, Rice (rice): 0 | Wheat plant response rating (0 to 100 scale) (wheat [3]; 125 g ai/ha): 0 | Plant response rating (0 to 100), Pigweed (pigweed; [14]): 60 | Pigweed plant response rating (pigweed; [15]): 65 | Plant response rating, Pigweed (pigweed; [16]): 70 | Plant response rating, Pigweed (pigweed; [17]): 80 | Plant response rating (0 to 100), Velvetleaf (velvetleaf [4]; [14]): 35 | Velvetleaf plant response rating (velvetleaf [4]; [15]): 60 | Plant response rating, Velvetleaf (velvetleaf [4]; [16]): 75 | Plant response rating, Velvetleaf (velvetleaf [4]; [17]): 65 | Plant response rating, Ducksalad (Heteranthera limosa): 90 | Plant response rating (0 to 100), Morningglory (morningglory; [14]): 30 | Morningglory plant response rating (morningglory; [15]): 50 | Plant response rating, Morningglory (morningglory; [16]): 35 | Plant response rating, Morningglory (morningglory; [17]): 35 | Crabgrass, Large plant response rating (large (Lg) crabgrass [5]; [8]): 50 | Plant response rating, Crabgrass, Large (large (Lg) crabgrass [5]; [9]): 90 | Velvetleaf plant response rating (0 to 100 scale) (velvetleaf [6]; 125 g ai/ha): 90 | Velvetleaf plant response rating (velvetleaf [6]; [18]): 100 | Plant response rating (0 to 100), Soybean (soybean; [14]): 30 | Soybean plant response rating (soybean; [15]): 30 | Plant response rating, Soybean (soybean; [16]): 80 | Plant response rating, Soybean (soybean; [17]): 75 | Crabgrass, Large plant response rating (0 to 100 scale) (large (Lg) crabgrass [7]; 125 g ai/ha): 100 | Crabgrass, Large plant response rating (large (Lg) crabgrass [7]; [18]): 100 | Foxtail, Giant plant response rating (giant foxtail; [8]): 70 | Plant response rating, Foxtail, Giant (giant foxtail; [9]): 90 | Plant response rating (0 to 100), Lambsquarters (lambsquarters; [14]): 10 | Lambsquarters plant response rating (lambsquarters; [15]): 25 | Plant response rating, Lambsquarters (lambsquarters; [16]): 90 | Plant response rating, Lambsquarters (lambsquarters; [17]): 90

Fc1cnc(Oc2ccccc2-n2cc(C(F)(F)F)cn2)nc1 [Compound 47]
Plant response rating, Wheat (wheat [1]; [8]): 60 | Plant response rating, Wheat (wheat [1]; [19]): 100 | Plant response rating (0 to 100), Oilseed Rape (oilseed rape; 125 g ai/ha, postemergence): 55 | Plant response rating (0 to 100), Oilseed Rape (oilseed rape; 250 g ai/ha, postemergence): 55 | Plant response rating, Oilseed Rape (oilseed rape; [10]): 15 | Plant response rating, Oilseed Rape (oilseed rape; [11]): 50 | Plant response rating (0 to 100), Kochia (kochia; 125 g ai/ha, postemergence): 25 | Plant response rating (0 to 100), Kochia (kochia; 250 g ai/ha, postemergence): 60 | Plant response rating, Kochia (kochia; [12]): 5 | Plant response rating, Kochia (kochia; Postemergence, 62 g ai/ha): 10 | Plant response rating, Velvetleaf (velvetleaf [2]; [8]): 100 | Plant response rating, Velvetleaf (velvetleaf [2]; [19]): 100 | Plant response rating, Rice (rice): 35 | Plant response rating, Wheat (wheat [3]; 125 g ai/ha): 0 | Wheat plant response rating (wheat [3]; 500 g ai/ha, 0 to 100 scale, 0 no effect, 100 complete control, approx. 10 days): 40 | Plant response rating (0 to 100), Pigweed (pigweed; 125 g ai/ha, postemergence): 65 | Plant response rating (0 to 100), Pigweed (pigweed; 250 g ai/ha, postemergence): 70 | Plant response rating, Pigweed (pigweed; [10]): 40 | Plant response rating, Pigweed (pigweed; [11]): 55 | Plant response rating (0 to 100), Velvetleaf (velvetleaf [4]; 125 g ai/ha, postemergence): 70 | Plant response rating (0 to 100), Velvetleaf (velvetleaf [4]; 250 g ai/ha, postemergence): 100 | Plant response rating, Velvetleaf (velvetleaf [4]; [10]): 45 | Plant response rating, Velvetleaf (velvetleaf [4]; [11]): 50 | Plant response rating, Ducksalad (Heteranthera limosa): 95 | Plant response rating (0 to 100), Morningglory (morningglory; 125 g ai/ha, postemergence): 70 | Plant response rating (0 to 100), Morningglory (morningglory; 250 g ai/ha, postemergence): 75 | Plant response rating, Morningglory (morningglory; [10]): 20 | Plant response rating, Morningglory (morningglory; [11]): 70 | Plant response rating, Crabgrass, Large (large (Lg) crabgrass [5]; [8]): 70 | Plant response rating, Crabgrass, Large (large (Lg) crabgrass [5]; [19]): 100 | Plant response rating, Velvetleaf (velvetleaf [6]; [8]): 100 | Velvetleaf plant response rating (velvetleaf [6]; [13]): 100 | Plant response rating (0 to 100), Soybean (soybean; 125 g ai/ha, postemergence): 65 | Plant response rating (0 to 100), Soybean (soybean; 250 g ai/ha, postemergence): 65 | Plant response rating, Soybean (soybean; [10]): 35 | Plant response rating, Soybean (soybean; [11]): 45 | Plant response rating, Crabgrass, Large (large (Lg) crabgrass [7]; [8]): 90 | Crabgrass, Large plant response rating (large (Lg) crabgrass [7]; [13]): 100 | Plant response rating, Foxtail, Giant (giant foxtail; [8]): 80 | Plant response rating, Foxtail, Giant (giant foxtail; [19]): 100 | Plant response rating (0 to 100), Lambsquarters (lambsquarters; 125 g ai/ha, postemergence): 60 | Plant response rating (0 to 100), Lambsquarters (lambsquarters; 250 g ai/ha, postemergence): 90 | Plant response rating, Lambsquarters (lambsquarters; [10]): 30 | Plant response rating, Lambsquarters (lambsquarters; [11]): 45
